Measurements reported in patent US10781444B2, “Functional genomics using CRISPR-Cas systems, compositions, methods, screens and applications thereof” (THE BROAD INSTITUTE, INC., priority 2013, dated 2020).

Experiments:
[1] = system: on-target and off-target genomic loci (NF2, NF1, MED12 and other top-ranking genes); assay: Deep sequencing of on-target and off-target loci for allele modification in A375 cells; type: cell-based, human; details: 7 and 14 days post-transduction
Excerpt: Applicants validated top ranking genes from the GeCKO screen individually using 3-5 sgRNAs (FIGS. 28C-E, 38, 39). […] Applicants compared sgRNA and shRNA-mediated protein depletion and PLX resistance using Western blot (FIG. 28D) and cell growth assays (FIG. 28E). […] Additionally, sgRNAs targeting NF1, MED12, CUL3, TADA1, and TADA2B led to a decrease in protein expression and increased resistance to PLX (FIGS. 38, 39).
Screening timeline considerations: After infection, cells are selected with puromycin. For most cell types, 0.5-2 ug/ml puromycin works well, although the minimum dose that kills all cells without any viral transduction should be determined in advance and the minimum concentration should be used for selection. […] As shown in the deep sequencing of the individual target (array) validations from the PLX resistance screen gene hits, genome modification increases over time. For most targets, genome modification was nearly complete after only 7 days.
Sequencing data analysis and indel detection: Off target loci in the human genome were identified for individual spacers using the CRISPR design tool (available at the website tools.genome-engineering.org). On-target and off-target loci were PCR amplified using Herculase II Fusion polymerase (Agilent), normalized, and pooled in equimolar proportions. Pooled libraries were denatured, diluted to a 14 pM concentration and sequenced using the MiSeq Personal Sequencer (Illumina). Sequencing data was demultiplexed using paired barcodes, aligned to reference amplicons, and analyzed for indels as described previously. Indel length analysis was performed by mapping the distance between multiple short reference sequences in individual reads.

[2] = system: human EMX1 locus; assay: Surveyor nuclease assay for genome modification at the human EMX1 locus in HEK 293FT cells; type: cell-based; details: co-expression with EMX1-targeting chimeric crRNA, n=3
Description: Mouse neuro2A (N2A) cell line (ATCC) was maintained with DMEM supplemented with 5% fetal bovine serum (HyClone), 2 mM GlutaMAX (Life Technologies), 100 U/mL penicillin, and 100 μg/mL streptomycin at 37° C. with 5% CO2.
Cells were transfected using Lipofectamine 2000 (Life Technologies) following the manufacturer's recommended protocol. For each well of a 24-well plate a total of 800 ng of plasmids were used.
Genomic DNA was extracted using the QuickExtract DNA extraction kit (Epicentre) following the manufacturer's protocol. […] Extracted genomic DNA was immediately processed or stored at −20° C.
The genomic region surrounding a CRISPR target site for each gene was PCR amplified, and products were purified using QiaQuick Spin Column (Qiagen) following manufacturer's protocol. […] After re-annealing, products were treated with Surveyor nuclease and Surveyor enhancer S (Transgenomics) following the manufacturer's recommended protocol, and analyzed on 4-20% Novex TBE poly-acrylamide gels (Life Technologies). […] Quantification was based on relative band intensities, as a measure of the fraction of cleaved DNA.

| Substance | off-target modification over time [1] | further results |
| --- | --- | --- |
| NF2_sg4: sgRNA 20 bp sequence GTACTGCAGTCCAAAGAACC (expressed or natural sequence) | off-target modification also increases with time |  |
| NF2_sg5: sgRNA 20 bp sequence CACAGTGGCCTGGCTCAAAA (expressed or natural sequence) |  | on-target genome modification over time [1]: lower modification that increased by 14 days post-transduction |
| SpCas9n: SpCas9 nickase with aspartate-to-alanine substitution (D10A) in the RuvC I catalytic domain |  | indels at the EMX1 protospacer target (Surveyor assay) [2]: does not generate indels |
| MED12_sg2: sgRNA 20 bp sequence CGTCAGCTTCAATCCTGCCA (expressed or natural sequence) | off-target modification also increases with time |  |
